The values that follow come from patent publication US5736568A, “2-(aminoalkoxy) phenylalkylamines with antiinflammatory activity” (Knoll Aktiengesellschaft, priority 1994, dated 1998).

In test [1] the test system is arachidonic acid release from zymosan stimulated macrophages. In words: Test A: Inhibition of Arachidonic Acid Release from Zymosan Stimulated Macrophages. Format: cell-based, mice (female MF1). The conditions noted are these: Mus musculus, Macrophage; peritoneal macrophages labelled with [3H]-arachidonic acid, zymosan stimulus, 5 h; tested at 100, 50, 20, 10, 5 and 1 μM. As for the experimental part:
Test A was carried out in the following way:
Inhibition of Arachidonic Acid Release from Zymosan Stimulated Macrophages
Female MF1 mice (weighing 20 to 25 g) were killed using a rising concentration of CO2. The mice were laid on their backs and the abdomens wiped with 70% alcohol. The skin was pulled back, exposing the peritoneal wall. Medium A (5 ml) (see below) was injected into the peritoneal cavity of each mouse followed by approximately 1 ml of air using a 20 ml syringe and a 21 G×40 mm needle in order to form a suspension of macrophage cells. The medium and cells were then removed using a 19 G×40 mm needle. The resulting suspension was returned to a sterile beaker kept on ice. The extracts from all the mice were pooled and this pooled cell suspension was counted using a Coulter counter and adjusted to a final cell count of 1-1.3×10^6 cells/ml prior to labelling with [^3 H]-arachidonic acid. Typically five mice provided sufficient cells for each multiwell plate.
Sufficient [^3 H]-arachidonic acid in ethanol to give a final concentration of 1.6 μCi/ml (equivalent to 40 μCi/plate) was blown to dryness under nitrogen. The arachidonic acid was then resuspended in 1 or 2 ml of the cell suspension which was then mixed with the remainder of the cell suspension in a centrifuge bottle.
The following day, non-adherent cells were removed by washing 3 times with sterile phosphate buffered saline (PBS). The adherent peritoneal macrophages were then cultured for a further 24 hours in the presence or absence of drugs, in medium B (see below) at 37° in a 5% CO2 atmosphere in order to measure the effects of drugs on the spontaneous release of arachidonic acid in the absence of stimulus. After this incubation, supernatants were removed to give medium 1 and stored in sealed multi-well plates at 4° C. prior to scintillation counting. […] The supernatants were replaced by fresh medium C containing fresh drug and a stimulus. Three drugs were tested at six concentrations (100, 50, 20, 10, 5 and 1 μM) in replicates of four on each plate. The other wells contained controls consisting of a positive control (e.g. dexamethasone), medium (B) only and medium C only.
Incubation was then continued for a further 5 hours, whereupon the supernatants were collected to give medium 2 and the adherent cells washed with PBS. The cells were then lysed with 100 μl of 0.1% TRITON® X100 in a 0.1% solution of bovine serum albumin in 0.9% saline and mechanically disrupted to give cell lysates. These supernatants (medium 2) and cell lysates (Cells) were also stored in sealed multi-well plates at 4° C. prior to scintillation counting. 200 μl aliquots of media, or 100 μl aliquots of cells were counted using 2 ml of OPTIPHASE "HIGH SAFE" (Trademark of LKB) as scintillant.
The percentage of arachidonic acid released was calculated using the mean values for each group of 4 wells in the following equation. [formula]
The percentage inhibition of arachidonic acid release caused by a drug may then be calculated using the following equation. [formula]
Medium A (for peritoneal lavage)
This mixture was transferred to sterile flask and made up to 400 ml with sterile water.
Medium B (for cell culture)
This mixture was transferred to a sterile beaker and made up to 650 ml with sterile water.
Medium C=medium B+stimulant (zymosan)
The zymosan stimulant was prepared as follows:--zymosan (200 mg) (supplied by Sigma) was added to PBS (20 ml). The mixture was boiled for 30 minutes and the volume restored to 20 ml with water. The zymosan was harvested by centrifugation at 500×g for 5 minutes, washed twice by resuspension in PBS (10 ml) and centrifugation. After the final separation, the zymosan was resuspended in 20 ml PBS and stored as 1 ml aliquots at -20° C.

The subject of test [2] is carrageenan-induced paw oedema. Description: Test B: Carrageenan-induced rat paw oedema test. The conditions noted are these: inhibition of paw oedema, 100 mg/kg oral, 3 h after carrageenan. The format is in vivo. The method, then:
Test B was carried out in the following way:
Carrageenan-induced rat paw oedema test
Female rats, weight range 125-150 g were fasted overnight. One of the hind legs of each animal was marked with a line at the connection between the cuboid/navicular and calcaneus/talus bones. Groups of six rats were orally dosed at 10 ml/kg, in random order, with a given dose of the test compound given as a solution or suspension in 10% (w/v) aqueous acacia solution.
One hour after dosing, 0.1 ml of 1% (w/v) sterile carrageenan λ in normal saline was injected deeply into the plantar surface of the marked hind foot of each rat. The volume of the foot (up to the marked line) was measured immediately after injection using duplicate water displacement readings. Three hours after injection the foot volume was measured again and the percentage increase in foot volume relative to the initial reading was calculated.
The increase in foot volume (i.e. the degree of oedema) in drug treated animals when compared with that in the drug untreated control gave the degree of inhibition of paw oedema by the drug.
Compounds were considered to be active in this test if they produced a statistically significant (typically 20% or greater) inhibition of paw oedema in at least two out of three tests after oral dosing at 100 mg/kg. Statistical significance was assessed using the Student's t test for single dose studies and Dunnett's test for multiple dose studies. More advantageous compounds were active in both Tests A and B,
A general note: The carrageenan paw model is a standard test of acute inflammation.

Test [3] has as its system carrageenan-induced pleurisy. In words: Test C: Carrageenan-induced pleurisy in rats. The conditions noted are these: 24 h and 48 h, leukocytes harvested at 72 h; for activity in Test C at 30 mg/kg: 30 mg/kg p.o. at challenge; for activity in Test C at 10 mg/kg or less: 10 mg/kg or less p.o. at challenge. Format: in vivo, rat. The method, then:
The most advantageous compounds of formula I were active in Test A and also in the following test. Carrageenan-induced pleurisy in rats was carried out as described by Ackerman et al. J. Pharmacol. Exp. Therap. 1980, 215, 588-595. Migrating leukocytes were harvested by lavage of the thoracic cavity 72 h after injection of 0.3 ml 1% λ-carrageenan in sterile isotonic saline. Test compounds were administered p.o. at the time of challenge and 24 h and 48 h thereafter.

For `CN(C)CCOc1ccc(Cl)cc1CN(C)C` [Example 22, 5-Chloro-2-(2-dimethylaminoethoxy)-N,N-dimethylbenzylamine], in test [1], the half-maximal inhibitory concentration (IC50) amounted to 14 µM. The inhibition at 100 mg/kg in test [2] stood at 26%. The “activity in Test C at 30 mg/kg” value in test [3] is given as “active”.
`CN(C)Cc1cc(Cl)c(Cl)cc1OCCN(C)Cc1ccccc1` [Example 5, 2-[2-(N-Benzyl-N-methylamino)ethoxy]-4,5-dichloro-N,N-dimethylbenzylamine] came in with an IC50 in test [1] of 12 µM. The molecule further had an inhibition at 100 mg/kg in test [2] of 6%.
As for `CN(C)Cc1cc(Cl)ccc1OCCN(C)Cc1ccc(C#N)cc1` [Example 10, 4-{N-[2-(4-Chloro-2-dimethylaminomethylphenoxy)ethyl]-N-[methyl]aminomethyl}benzonitrile], in test [1], the concentration for half-maximal inhibition (IC50) is 47 µM.
As for `CN(C)Cc1c(Cl)cccc1OCCN(C)Cc1ccccc1O` [Example 33, 2-{N-[2-(3-chloro-2-dimethylaminomethylphenoxy)ethyl]-N-[methyl]aminomethyl}phenol], the IC50 in test [1] was 16 µM. Further, the “activity in Test C at 10 mg/kg or less” value in test [3] was “active”.
Turning to `CN(C)Cc1cccc(Cl)c1OCCN(C)Cc1ccccc1` [Example 2, 2-[2-(N-Benzyl-N-methylamino)ethoxy]-3-chloro-N,N-dimethylbenzylamine], the IC50 in test [1] amounted to 65 µM.
Regarding `CN(C)Cc1ccccc1OCCN(C)Cc1ccccc1Cl` [Example 14, 2-{2-[N-(2-Chlorobenzyl)-N-methylamino]ethoxy}-N,N-dimethylbenzylamine], the IC50 in test [1] amounted to 45 µM. The “activity in Test C at 10 mg/kg or less” value in test [3] was “active”.
For the molecule `CN(C)Cc1cc(C(F)(F)F)ccc1OCCN(C)Cc1ccccc1` [Example 7, 2-[2-(N-Benzyl-N-methylamino)ethoxy]-N,N-dimethyl-5-trifluoromethylbenzylamine], the IC50 in test [1] came out at 20 µM. 100 mg/kg produced 18% inhibition in test [2].
In test [1], `CN(C)Cc1cc(Cl)ccc1OCCCN(C)Cc1ccccc1` [Example 12, 2-[3-(N-Benzyl-N-methylamino)propoxy]-5-chloro-N,N-dimethylbenzylamine] came in with an IC50 of 8 µM. In addition, 100 mg/kg produced 68% inhibition in test [2]. Further, in test [3], the “activity in Test C at 30 mg/kg” value is “active”.
As to `CN(C)Cc1cc(Cl)ccc1OCCNCc1ccccc1` [Example 9, 2-[2-(Benzylamino)ethoxy]-5-chloro-N,N-dimethylbenzyl-amine], in test [1], half-maximal inhibition (IC50) was put at 9 µM. The inhibition at 100 mg/kg in test [2] came out at 56%.
Regarding `CN(C)Cc1cc(Cl)ccc1OCCN(C)Cc1ccc(C(N)=O)cc1` [Example 30, 4-{N-[2-(4-chloro-2-dimethylaminomethylphenoxy)ethyl]-N-[methyl]aminomethyl}benzamide], the IC50 in test [1] was 74 µM.
Take `COC(=O)c1ccc(OCCN(C)Cc2ccccc2)c(CN(C)C)c1` [Example 26, methyl 4-[2-(N-benzyl-N-methylamino)ethoxy]-3-(dimethylaminomethyl) benzoate]: in test [1], the IC50 amounted to 33 µM.
For `COc1ccc(CN(C)C)c(OCCN(C)Cc2ccccc2)c1` [Example 18, 2-[2-(N-Benzyl-N-methylamino)ethoxy]-4-methoxy-N,N-dimethylbenzylamine], in test [1], half-maximal inhibition (IC50) required 24 µM.
In turn, `CN(C)Cc1cc(C(N)=O)ccc1OCCN(C)Cc1ccc(Cl)cc1` [Example 31, 4-{2-[N-(4-chlorobenzyl)-N-methylamino]ethoxy}-3-(dimethylaminomethyl)benzamide] yielded an IC50 in test [1] of 39 µM. This molecule also showed an inhibition at 100 mg/kg in test [2] of 19%.
In test [1], `CN(CCOc1cccc(Cl)c1CN)Cc1ccccc1` [Example 37, 2-[2-(N-benzyl-N-methylamino)ethoxy]-6-chlorobenzylamine] came in with an IC50 of 12 µM. In test [3], the “activity in Test C at 10 mg/kg or less” value was “active”.
Take `CN(C)Cc1cc(Cl)ccc1OCCN1CCCCC1` [Example 16, 5-Chloro-2-(2-piperidinoethoxy)-N,N-dimethylbenzylamine]: the half-inhibitory concentration (IC50) in test [1] is 26 µM.
In turn, `CN(C)Cc1cc(O)ccc1OCCN(C)Cc1ccccc1` [Example 32, 4-[2-(N-benzyl-N-methylamino)ethoxy]-3-(dimethylaminomethyl)phenol] displayed an IC50 in test [1] of 39 µM. Also, the inhibition at 100 mg/kg in test [2] was found to be 0%.
In test [1], `CN(C)Cc1ccccc1OCCNC(C)(C)c1ccc(Cl)cc1` [Example 36, 2-[2-(4-chloro-α,α-dimethylbenzylamino)ethoxy]-N,N-dimethylbenzylamine] registered a half-inhibitory concentration (IC50) of 3 µM. The “activity in Test C at 10 mg/kg or less” value in test [3] was “active”.
`CN(CCCOc1cccc(Cl)c1CN)Cc1ccccc1` [Example 29, 2-[3-(N-benzyl-N-methylamino)propoxy]-6-chlorobenzylamine]: the IC50 in test [1] worked out at 15 µM.
The same measure, in the same setting: as for `CN(C)Cc1cc(C#N)ccc1OCCN(C)Cc1ccccc1` [Example 4, 4-[2-(N-Benzyl-N-methylamino)ethoxy]-3-(dimethylaminomethyl)benzonitrile], the figure is 60 µM.
Take `CN(C)Cc1c(Cl)cccc1OCCCN(C)Cc1ccccc1` [Example 35, 2-[3-(N-benzyl-N-methylamino)propoxy]-6-chloro-N,N-dimethylbenzylamine]: half-maximal inhibition in test [1] (IC50) required 33 µM. For the same molecule, the “activity in Test C at 10 mg/kg or less” value in test [3] was “active”.
For the molecule `COc1ccc(OCCN(C)Cc2ccccc2)c(CN)c1` [Example 27, 2-[2-(N-benzyl-N-methylamino)ethoxy]-5-methoxybenzylamine], in test [1], 34 µM corresponded to half-maximal inhibition (IC50).
`CN(C)CCOc1ccccc1CN(C)C` [Example 23, 2-(2-dimethylaminoethoxy)-N,N-dimethylbenzylamine] registered an IC50 in test [1] of 62 µM.
For the molecule `CN(CCOc1ccc(Cl)cc1CN)Cc1ccccc1` [Example 28, 2-[2-(N-benzyl-N-methylamino)ethoxy]-5-chlorobenzylamine], inhibition in test [1] was half-maximal at 18 µM (IC50).
In the case of `CCN(CC)CCOc1ccccc1CN(C)C` [Example 19, 2-(2-diethylaminoethoxy)-N,N-dimethylbenzylamine], the IC50 in test [1] was 65 µM.
On the same count and under the same terms, for `CN(C)CCCOc1ccccc1CN(C)C` [Example 24, N,N-dimethyl-2-(3-dimethylaminopropoxy) benzylamine] the value was 50 µM.
In test [1], `CCN(CC)CCOc1ccc(Cl)cc1CN(C)C` [Example 25] displayed an IC50 of 30 µM. Further, in test [2], the inhibition at 100 mg/kg was found to be 22%.
Molecule `COc1ccc(OCCN(C)Cc2ccccc2)c(CN(C)C)c1` [Example 34, 2-[2-(N-benzyl-N-methylamino)ethoxy]-5-methoxy-N,N-dimethylbenzylamine] came in with an IC50 in test [1] of 35 µM.

What is called IC50 is the concentration that gives 50% inhibition. In general, inhibition refers to the change of the read-out against control, counted positive when it falls. A low value points to a response near the control.
